Among the test systems are ACHN renal; UACC-257 melanoma; SW-620 colon; 786-0 renal; NCI-H460 lung; NCI-H522 lung; KM12 colon; A498 renal; HOP-92 NSCLC.
Common to all, as to assay: DTP human tumour cell line panel, 48 h

Several values for one entry are separate records, joined by “and”; a condition that tells them apart may be missing. Equal values may be shown once.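 Briefly, cells in 96-well plates were exposed to five compound concentrations for 48 h, and endpoints were estimated by linear interpolation. GI50 marks 50% less growth. Definition used: TGI = concentration required for complete inhibition of growth.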 Bounds are passed on as bounds.

Regarding `COC(=O)/C(C#N)=C1\CCC(OC)N1C` (stereo not drawn), the TGI in the assay on ACHN renal, in the assay with UACC-257 melanoma, in the assay on SW-620 colon, in the assay on 786-0 renal, with NCI-H460 lung and in the assay on NCI-H522 lung was above 100 µM throughout. For the same compound, the TGI in the assay with KM12 colon is above 100 µM.
Take `Cc1ccc(N2C(=O)/C(=C/c3ccc(N(CCC#N)CCC#N)cc3)N=C2COc2ccc(Cl)cc2Cl)cc1`: the TGI in the assay on ACHN renal, in the assay with UACC-257 melanoma, in the assay with SW-620 colon, with 786-0 renal, in the assay on NCI-H460 lung and in the assay on NCI-H522 lung was above 100 µM throughout. For the same compound, the TGI with KM12 colon was above 100 µM.
Turning to `COc1cc2c(cc1OC)C(C(CBr)CBr)N(C1CCCC1)CC2` (stereo not drawn), the TGI with ACHN renal, with UACC-257 melanoma, with SW-620 colon, with 786-0 renal, in the assay with A498 renal and in the assay with NCI-H460 lung was above 100 µM in each case. In addition, the TGI in the assay with NCI-H522 lung, with KM12 colon and in the assay with HOP-92 NSCLC was above 100 µM in each case.
With `CC(/C=C/C(=O)c1sc(C(N)=S)nc1C)=C\c1ccccc1`, the TGI with ACHN renal, in the assay with UACC-257 melanoma, with 786-0 renal, in the assay with A498 renal, in the assay with NCI-H460 lung and with NCI-H522 lung was above 100 µM each time. Besides, the TGI in the assay with KM12 colon and in the assay with HOP-92 NSCLC was above 100 µM each time.
In the case of `COc1cc(Cc2c(C)cc(OC)c3[nH]c4ccccc4c23)cc2c1[nH]c1ccccc12`, the GI50 with ACHN renal is 4670 nM; in the assay with SW-620 colon, 8.09 µM; in the assay on 786-0 renal it was 5380 nM; in the assay on NCI-H460 lung, 5130 nM; with NCI-H522 lung it was 5030 nM; in the assay on KM12 colon it was 5430 nM. For the same compound, the GI50 in the assay on HOP-92 NSCLC was 7.63 µM. Further, the TGI is above 25 µM with ACHN renal; above 25 µM in the assay on SW-620 colon; 14.2 µM with 786-0 renal; 12.1 µM in the assay on NCI-H460 lung; 11.6 µM in the assay on NCI-H522 lung; 15 µM with KM12 colon. In addition, the TGI with HOP-92 NSCLC was above 25 µM.
Regarding `Cc1ccccc1-n1c(=S)[nH]c2c(sc(=O)n2-c2ccccc2C)c1=O`, the TGI with ACHN renal, in the assay with UACC-257 melanoma, with SW-620 colon, with 786-0 renal, with A498 renal and with NCI-H460 lung was above 100 µM throughout. The TGI with NCI-H522 lung, with KM12 colon and in the assay on HOP-92 NSCLC was above 100 µM each time.
For the compound `COC(=O)c1onc(C2OC(C)(C)OC2C(O)COC(c2ccccc2)(c2ccccc2)c2ccccc2)c1C(=O)OC` (stereo not drawn), the TGI in the assay with ACHN renal, in the assay with SW-620 colon, in the assay on 786-0 renal, with A498 renal, in the assay on NCI-H522 lung and with KM12 colon was above 100 µM each time. Moreover, the TGI in the assay with HOP-92 NSCLC is above 100 µM.
In the case of `Cc1ccc2oc(=O)c3c(O)c4cccc(OC5OC(C)C6O[C@@H](c7ccccc7)OC6C5OC5OC(C)C(O)C(O)C5O)c4c4oc(=O)c1c2c34` (stereo partly drawn), the GI50 in the assay on ACHN renal is 55.9 nM; in the assay on UACC-257 melanoma, 309 nM; in the assay with 786-0 renal, 44.7 nM; in the assay on A498 renal, 167 nM; with NCI-H460 lung it was 4.67 nM; in the assay with NCI-H522 lung, 104 nM. Also, the GI50 is 48.6 nM with KM12 colon and 0.333 µM in the assay with HOP-92 NSCLC. The TGI was 1.14 µM and 0.439 µM in the assay on ACHN renal; 1.82 µM and 2.12 µM in the assay with UACC-257 melanoma; 2.43 µM and 7.53 µM with SW-620 colon; 1.09 µM and 1.91 µM in the assay on 786-0 renal; 1.22 µM and 0.95 µM in the assay on A498 renal; 1.03 µM and 0.545 µM with NCI-H460 lung. Also, the TGI is 0.294 µM and 1.38 µM in the assay with NCI-H522 lung; 1.43 µM and 1.92 µM in the assay with KM12 colon; 2.22 µM and 2.13 µM with HOP-92 NSCLC.
Take `O=C1OC(=O)C23CSCC12C1C=CC3O1` (stereo not drawn): the TGI in the assay with ACHN renal, in the assay on UACC-257 melanoma, in the assay with SW-620 colon, in the assay on 786-0 renal, in the assay on A498 renal and in the assay with NCI-H460 lung was above 100 µM each time. The TGI in the assay on NCI-H522 lung and in the assay on KM12 colon was above 100 µM throughout.
On to `COc1ccc(N2C(=O)[C@@H](N=[N+]=[N-])[C@@H]2[C@H]2COC(C)(C)O2)cc1`, for which the TGI in the assay with ACHN renal, in the assay with UACC-257 melanoma, in the assay with SW-620 colon, in the assay with 786-0 renal, in the assay on NCI-H460 lung and with NCI-H522 lung was above 100 µM in each case. In addition, the TGI in the assay on KM12 colon and in the assay with HOP-92 NSCLC was above 100 µM in each case.
For the compound `CCC1CCCCN1CC(C(C)=O)C(c1ccccc1)c1c(O)c2ccccc2oc1=O` (stereo not drawn), the TGI in the assay with ACHN renal, in the assay on UACC-257 melanoma, in the assay with SW-620 colon, in the assay on 786-0 renal, in the assay on A498 renal and in the assay with NCI-H460 lung was above 100 µM throughout. Besides, the TGI in the assay on NCI-H522 lung and in the assay with KM12 colon was above 100 µM each time.
With `O=[N+]([O-])c1cc(/C=N\NS(=O)(=O)c2ccc(Cl)cc2)c(O)c([N+](=O)[O-])c1`, the TGI was above 100 µM with ACHN renal; above 100 µM in the assay on UACC-257 melanoma; above 100 µM with SW-620 colon; above 100 µM in the assay on 786-0 renal; 83 µM in the assay on A498 renal; 54.4 µM with NCI-H460 lung. Also, the results for the TGI in the assay with NCI-H522 lung, in the assay with KM12 colon and with HOP-92 NSCLC were 52.4 µM, 67.1 µM and above 100 µM, respectively.
`CCOC(=O)[C@@]12C(C)=CC(=O)O[C@]1(C)C1C(=O)NC(=O)C12` (stereo partly drawn): the TGI in the assay on ACHN renal, in the assay on UACC-257 melanoma, with SW-620 colon, with 786-0 renal, in the assay with A498 renal and in the assay on NCI-H460 lung was above 100 µM throughout. Besides, the TGI in the assay with KM12 colon and with HOP-92 NSCLC was above 100 µM throughout.
`O=C(c1ccccc1)c1nnn(Cc2ccccc2Cn2nnc(C(=O)c3ccccc3)c2C(=O)c2ccccc2)c1C(=O)c1ccccc1`: the TGI with ACHN renal, in the assay with UACC-257 melanoma, in the assay on SW-620 colon, with 786-0 renal, in the assay on A498 renal and with NCI-H460 lung was above 100 µM throughout. In addition, the TGI in the assay on NCI-H522 lung, in the assay on KM12 colon and with HOP-92 NSCLC was above 100 µM in each case.

(Values after PubChem BioAssay (NCI).)
